From patent US8299020B2, “Antimicrobial peptides and methods of their use” (The Ohio State University Research Foundation, priority 2006, dated 2012)
Like-named read-outs stand apart in the source and are kept apart here.

Legend:
solubility in water = assay type: physicochemical; conditions: neutral water
Acinetobacter baumannii = conditions: background statement; cited from earlier work
Pseudomonas aeruginosa = conditions: background statement; cited from earlier work
gram-negative bacteria [1] = conditions: background statement; cited from earlier work
gram-negative bacteria [2] = test: bioassay of activity against gram-negative bacteria; assay type: cell-based
Protocol: Antimicrobial activity determination. A qualitative and quantitative bioassay for antimicrobial potency was done using the spot-on-lawn method. An indicator lawn was prepared by pouring 10 ml soft agar (seeded with 200 μl overnight indicator culture) onto tryptose agar as a basal medium, in a petri dish. Escherichia coli K-12 and Lactobacillus plantarum ATCC 8014 were generally used as the gram-negative and gram-positive sensitive indicators, respectively, but other bacteria were tested to determine the OSY-DF antimicrobial spectrum (Table 1). For qualitative tests, aliquots (10 μl) of cell-free culture supernatant (pH 6.5) were spotted on indicator lawns, and the plates were incubated overnight for inhibition area observation. A clear inhibition area of ≧3 mm in diameter was recorded as positive. For the quantitative measurements, the cell-free culture supernatant was twofold serially diluted and dilutions were spotted onto the indicator lawn as just described. Antimicrobial activity was expressed in AU/ml; these values are the reciprocal of the highest dilution displaying a clear zone of inhibition that corresponds to 1 ml of the nondiluted supernatant.
Separation and purification by HPLC of the OSY-DF peptide. […] Elution was monitored at a wavelength of 220 nm, and fractions were collected manually for the antimicrobial activity bioassay. […]

Row | Compound | solubility in water (solubility in water) | solubility in water (solubility in water; listed as OSY-DF peptide) | activity against Acinetobacter baumannii (Acinetobacter baumannii) | activity against Pseudomonas aeruginosa (Pseudomonas aeruginosa) | activity against gram-negative bacteria (gram-negative bacteria [1]) | activity against gram-negative bacteria (gram-negative bacteria [2])
1 | C=C1NC(=O)C2CSC(C)C(NC(=O)C3CSC(C)C4NC(=O)[C@H](CC(C)C)NC(=O)C(NC(=O)[C@H](CCCCN)NC(=O)C5CSCC(NC(=O)[C@@H](NC(=O)[C@H](CCCCN)NC(=O)[C@@H](NC(=O)/C(=C/C)NC(=O)/C(=C/C)NC(=O)[C@H](CCCCN)NC(=O)[C@@H](NC(=O)[C@@H](NC(=O)C(=C)NC(=O)[C@H](C)NC(C)=O)[C@@H](C)CC)[C@@H](C)CC)[C@@H](C)CC)C(C)C)C(=O)N[C@@H](CCCCN)C(=O)N[C@@H](C)C(=O)N[C@@H](C(C)C)C(=O)N5)C(C)SCC(NC4=O)C(=O)N[C@@H]([C@@H](C)CC)C(=O)N3)C(=O)NCC(=O)NC(CSCC(C(=O)N[C@@H](CCCCN)C(=O)O)NC(=O)[C@H](CC(N)=O)NC1=O)C(=O)N2 (stereo partly drawn) [Paenibacillin, (CH3CO-^1A)-Dha-I-I-K-Dhb-Dhb-I-K-V-A-K-A-V-A-K-Abu-L-Abu-A-I-A-Abu-G-A-A-Dha-N-A-K^30] | easy to dissolve | readily soluble |  |  |  | 
2 | polymyxin E1 |  |  | active | active | specifically active | anti-gram-negative activity
